In article PMC9389588, “1,6-epi-Cyclophellitol Cyclosulfamidate Is a Bona Fide Lysosomal α-Glucosidase Stabilizer for the Treatment of Pompe Disease” (Journal of the American Chemical Society, 2022):

Assays:
rhGAA (Myozyme) [1] = biological target: T1, rhGAA (Myozyme) (Homo sapiens, UniProt P10253); experiment: thermostability assay of Myozyme, Tycho NT.6; assay type: binding
T1 construct: purchased Sanofi Genzyme

[2] = biological target: T2, glucosylceramide synthase (GCS) (Mus musculus, UniProt O88693); experiment: in situ cell inhibition of GCS in RAW 264.7 cells, glucosylation of C6-NBD-ceramide; assay type: cell-based; settings: mean ± SD
T2 construct: endogenous in cells; host or cells: RAW 264.7
T2 sequence (O88693 1-394): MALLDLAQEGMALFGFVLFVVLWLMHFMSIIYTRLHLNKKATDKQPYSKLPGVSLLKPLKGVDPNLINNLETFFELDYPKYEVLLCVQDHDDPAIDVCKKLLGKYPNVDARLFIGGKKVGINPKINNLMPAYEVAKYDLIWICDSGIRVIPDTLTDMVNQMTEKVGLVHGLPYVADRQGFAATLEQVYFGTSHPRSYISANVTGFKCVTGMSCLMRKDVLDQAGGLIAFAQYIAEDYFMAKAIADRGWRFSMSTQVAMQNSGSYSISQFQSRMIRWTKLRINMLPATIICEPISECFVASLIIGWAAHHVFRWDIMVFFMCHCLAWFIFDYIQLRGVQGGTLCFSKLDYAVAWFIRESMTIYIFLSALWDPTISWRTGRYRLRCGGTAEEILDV

[3] = biological target: T3, β-glucosidase GBA1 (Cerezyme) (Homo sapiens, UniProt P04062, R534H); experiment: in vitro apparent IC50, GBA1 (Cerezyme), 4-MU-β-D-glucopyranoside; assay type: biochemical; settings: pH 5.2, mean ± SD, read-out: in vitro GBA IC50
T3 construct: purchased
T3 sequence (P04062 40-536 R534H): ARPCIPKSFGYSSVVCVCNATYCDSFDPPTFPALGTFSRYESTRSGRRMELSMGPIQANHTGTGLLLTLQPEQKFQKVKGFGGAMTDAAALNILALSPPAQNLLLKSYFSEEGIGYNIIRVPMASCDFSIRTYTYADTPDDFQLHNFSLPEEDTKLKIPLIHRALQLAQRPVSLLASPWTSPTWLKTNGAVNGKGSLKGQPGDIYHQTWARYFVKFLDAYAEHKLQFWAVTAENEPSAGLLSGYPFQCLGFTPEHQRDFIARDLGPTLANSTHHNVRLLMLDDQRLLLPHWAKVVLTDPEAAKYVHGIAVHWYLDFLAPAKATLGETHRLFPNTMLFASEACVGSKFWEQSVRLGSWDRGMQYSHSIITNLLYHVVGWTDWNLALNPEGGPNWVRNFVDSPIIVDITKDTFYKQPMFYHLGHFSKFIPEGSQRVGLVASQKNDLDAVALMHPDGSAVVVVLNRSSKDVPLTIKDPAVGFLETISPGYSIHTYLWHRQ

rhGAA (Myozyme) [4] = biological target: T1, rhGAA (Myozyme); experiment: time-dependent inhibition of GAA; assay type: biochemical; settings: preincubation 15-240 min at apparent IC50 concentration
Method: 2.1 Biochemical and Biological Methods
2.1.1 In vitro apparent IC50 experiments
To determine in vitro apparent IC50 values, 40 μL of enzyme-mixture was pre-incubated with 40 μL of inhibitor for […]
and 2% DMSO (v/v). GANAB in 150 mM McIlvaine buffer pH 7.0, 0.1% BSA (w/v) and 2% DMSO (v/v). GBA1 in 150 mM McIlvaine buffer pH 5.2, 0.2% Taurocholate (w/v), 0.1% Triton X-100 (v/v), 0.1% BSA (w/v), 2% DMSO (v/v). GBA2 in 150 mM McIlvaine pH 5.8, 0.1% BSA (w/v).
After preincubation, 25 μL of E+I mixture was added to a 96 wells plate and 100 μL substrate solution in the appropriate buffer was subsequently added. GAA activity was measured using final concentrations of 47 nM enzyme (Myozyme) and 3.0 mM 4-MU-α-D-glucopyranoside, for 30 minutes at 37 ℃. GANAB activity was measured using wt fibroblasts and 2.4 mM 4-MU-α-D-glucopyranoside, for 2 h at 37 ℃. GBA1 activity was measured using final concentrations of 0.7 nM enzyme (Cerezyme) and 3.0 mM 4-methylumbeliferone(4-MU)-β-D-glucopyranoside, for 30 min at 37 ℃. GBA2 residual activity was measured using cellular homogenates of HEK293T over-expressing GBA2 pre-incubated for 30 min with a GBA1 inhibitor (1 µM 37 (ME656), see Figure S1 for chemical structure), and further incubation with 3.0 mM 4-methylumbeliferone(4MU)-β-D-glucopyranoside […]

O=S1(=O)N[C@H]2[C@H](CO)[C@@H](O)[C@H](O)[C@@H](O)[C@H]2O1 [compound 6] was tested, and the “effect on rhGAA thermostability, in words” value (rhGAA (Myozyme) [1]; increasing temperature) was “does not prevent enzyme unfolding”, the IC50 [2] was greater than 50 µM and the IC50 [3] was greater than 500 µM. The type of inhibition (rhGAA (Myozyme) [4]) was “irreversible inhibitor”.
With O=S1(=O)N[C@@H]2[C@H](O)[C@@H](O)[C@H](O)[C@@H](CO)[C@@H]2O1 [compound 4, 1,6-epi-cyclophellitol cyclosulfamidate] the “maximum shift in inflection temperature (ΔTimax)” value (rhGAA (Myozyme) [1]; Myozyme 1 μM, 0-20 μM compound, pH 6.5) was 11.2 °C, the EC50 (rhGAA (Myozyme) [1]; Myozyme 1 μM, 0-20 μM compound, pH 6.5, read-out: EC50 of thermal stabilization) was 1.16 µM and the IC50 [2] was greater than 50 µM. For the same compound, the IC50 [3] was greater than 500 µM and the type of inhibition (rhGAA (Myozyme) [4]) was “competitive manner”.
